The record followed here is US8829014B2, “Thiazole and thiophene analogues, and their use in treating autoimmune diseases and cancers” (Board of Supervisors of Louisiana State University and …, priority 2006, dated 2014).

Where two headings read alike, the source gives them in different places.

The subject of this assay is carageenan-induced edema. The experiment in a line: Carrageenan-induced rat paw edema test (anti-inflammatory activity). The format is in vivo, Sprague-Dawley rats. The settings on record: for inhibition in vivo at 50 mg/kg: Rattus norvegicus, po, 3 h. As to the method:
Sprague-Dawley rats, male and female, 150-250 g will be used in an edema test. Rats will be deprived of food but not water for 18 hours prior to the experiment. The test compounds will be administered with a blunt-tipped needle orally, 50 mg/kg, as a suspension in 0.1% sodium CMC (carboxymethylcellulose) vehicle. Alternatively, the test compounds will be injected intravenously, subcutaneously, or intraperitoneally. One hour later, 0.1 ml of a 1% carrageenan solution in saline will be injected in the sub-plantar region of the right hind paw of each rat. […] The reading will be repeated 3 hours later. The displacement readings give a measure of carageenan-induced edema. Any reduction in carageenan-induced edema with a test compound, as compared to saline control, is a measure of the anti-inflammatory activity of the test compound. The percentage protection at 50-mg/kg doses was calculated according to the following formula: % Protection=[(Control−Test)/Control]×100%.
Following treatment, the media from the VSMC and HUVEC incubations were removed, and the amount of lactate dehydrogenase (LDH) released into the medium was determined with a commercial kit and expressed as a % increase over vehicle-treated cells. HPT toxicity was determined by the ethidium homodimer (EthHD) uptake assay. […] The lead compounds were also tested in two pairs of cell lines from the skin or prostate, one tumorigenic and one non-tumorigenic, to test for differing toxicity or heightened sensitivity in the tumorigenic lines. The cells were treated for 48 h with vehicle (0.1% DMSO) or 10 μM of each drug candidate, and the viability of the cells was determined by the MTT assay, expressed as a % decrease in viability compared to vehicle-treated cells. The in vivo inflammation model measured the % inhibition of rat paw edema induced by carageenan injection.
Background: Carrageenan injected into the paw causes an acute inflammation.

[1] abbreviates: rat paw edema, 50 mg/kg, reading 3 hours after carrageenan, [(Control−Test)/Control]×100%, read-out: % Protection P.
The mark [2] stands for this setting: rat paw edema, 50 mg/kg, reading 3 hours after carrageenan, [(Control−Test)/Control]×100%.
Where [3] appears, read: rat paw edema, 50 mg/kg, reading 3 hours after carrageenan, [(Control−Test)/Control]×100%, 50 mg/kg.

As to `O=C(c1cc(-c2ccncc2)c(N2CCOCC2)s1)c1ccc(Cl)cc1Cl` [Example 106, (2,4-Dichloro-phenyl)-(5-morpholin-4-yl-4-pyridin-4-yl-thiophen-2-yl)-methanone], under setting [1], the inhibition in vivo at 50 mg/kg was -75.2%.

For the molecule `CC(=O)Nc1ccc(C(=O)c2cc(-c3ccncc3)c(N3CCOCC3)s2)cc1` [Example 109, N-[4-(5-Morpholin-4-yl-4-pyridin-4-yl-thiophen-2-carbonyl)-phenyl]-acetamide], under setting [1], the inhibition in vivo at 50 mg/kg was -75.2%.

`O=C(Nc1ccc(F)cc1)Nc1nc(Nc2ccc(Cl)cc2)sc1C(=O)c1ccc(Cl)cc1Cl` [Example 358, 1-[2-(4-Chloro-phenylamino)-5-(2,4-dichloro-benzoyl)-thiazol-4-yl]-3-(4-fluoro-phenyl)-urea]: the inhibition in vivo at 50 mg/kg under setting [1] came out at 72.5%.

Turning to `O=C(c1cc(-c2ccc(Cl)cc2)c(N2CCOCC2)s1)c1cc(-c2ccc(Cl)cc2)c(N2CCOCC2)s1` [Example 114, Bis-[4-(4-chloro-phenyl)-5-morpholin-4-yl-thiophen-2-yl]-methanone], the inhibition in vivo at 50 mg/kg under setting [1] turned out to be 56.6%.

On to `Nc1nc(Nc2ccccc2)sc1C(=O)c1ccncc1` [Example 328, (4-Amino-2-phenylamino-thiazol-5-yl)-pyridin-4-yl-methanone], for which, under setting [1], the inhibition in vivo at 50 mg/kg is 76%.

For the molecule “4-{5-[5-Methyl-5-(2,2,2-trifluoro-ethoxy)-pyridin-2-yl]-3-pyridin-3-yl-thiphen-2-yl}-morpholine [Example 89]”, the “% Protection P” value under setting [2] was −18.05%.

Turning to `CC(=O)Nc1ccc(-c2cc(C(=O)c3cccnc3)sc2N2CCOCC2)cc1` [Example 74, N-{4-[2-Morpholin-4-yl-5-(pyridine-3-carbonyl)-thiophene-3-yl]-phenyl}-acetamide], the inhibition in vivo at 50 mg/kg under setting [1] came to 34%.

As for `O=c1c2ccccc2nc(-c2cc(-c3ccccc3)c(N3CCOCC3)s2)n1-c1ccccc1Cl` [Example 304, 3-(2-Chlorophenyl)-2-(5-morpholin-4-yl-4-phenyl-thiophen-2-yl)-3H-quinazolin-4-one], under setting [1], the inhibition in vivo at 50 mg/kg turned out to be 37%.

For the molecule `COc1ccc(Nc2nc(NC(=O)Nc3ccc(F)cc3)c(C(=O)c3ccncc3)s2)cc1` [Example 365, 1-(4-Fluoro-phenyl)-3-[2-(4-methoxy-phenylamino)-5-(pyridine-4-carbonyl)-thiazol-4-yl]-urea], the inhibition in vivo at 50 mg/kg under setting [1] was 69.6%.

For the molecule `O=C(c1ccc(Cl)cc1)c1cc(-c2ccc(Cl)cc2)c(N2CCOCC2)s1` [Example 81, (4-Chloro-phenyl)-[4-(4-chloro-phenyl)-5-morpholin-4-yl-thiophen-2-yl]-methanone], under setting [1], the inhibition in vivo at 50 mg/kg amounted to 20%.

Turning to `Cc1ccc(C(=O)c2cc(-c3ccc(Cl)cc3)c(N3CCOCC3)s2)cc1` [Example 79, [4-(4-Chloro-phenyl)-5-morpholin-4-yl-thiophen-2-yl]-p-tolyl-methanone], under setting [1], the inhibition in vivo at 50 mg/kg was -31%.

`Nc1nc(Nc2ccccc2)sc1C(=O)c1ccc(Cl)cc1Cl` [Example 324, (4-Amino-2-phenylamino-thiazol-5-yl)-(2,4-dichloro-phenyl)-methanone]: the inhibition in vivo at 50 mg/kg under setting [1] is 55%.

For `CCOC(=O)Nc1nc(-c2ccccc2)c(C(=O)c2sc(NC(=O)OCC)nc2-c2ccccc2)s1` [Example 131, Diethyl[carbonyl-bis(4-phenyl-1,3-thiazole-5,2-diyl)]biscarbamate], under setting [1], the inhibition in vivo at 50 mg/kg was determined as 69.8%.

On to `COc1ccc(Nc2nc(NC(=O)Nc3ccc(F)cc3)c(C(=O)c3ccc(C)cc3)s2)cc1` [Example 362, 1-[2-(4-Methoxy-phenylamino)-5-(4-methyl-benzoyl)-thiazol-4-yl]-3-(4-fluoro-phenyl)-urea], for which the inhibition in vivo at 50 mg/kg under setting [1] is 61.3%.

With `Cc1cccc(-n2c(-c3cc(-c4ccc(S(C)(=O)=O)cc4)c(N4CCOCC4)s3)nc3ccccc3c2=O)c1` [Example 287, 2-[4-(4-Methanesulfonyl-phenyl)-5-morpholin-4-yl-thiophen-2-yl]-3-m-tolyl-3H-quinazolin-4-one], the inhibition in vivo at 50 mg/kg under setting [1] is 51%.

Consider `Cc1ccccc1-n1c(-c2sc(Nc3ccc(Cl)cc3)nc2-c2ccccc2)nc2ccccc2c1=O` [Example 178, 2-[2-(4-Chloro-phenylamino)-4-phenyl-thiazol-5-yl]-3-o-tolyl-3H-quinazolin-4-one], for which, under “carrageenan-induced rat paw edema, defined in Example 397, read-out: % Protection”, the inhibition in vivo at 50 mg/kg turned out to be 51%.

Consider `Cc1nc(NC(=O)c2ccccc2)sc1C(=O)c1sc(NC(=O)c2ccccc2)nc1C` [Example 128, Bis-[2-(2-Benzoyl-amino)-4-methyl-thiazole-5-yl]-methanone], for which the “% Protection P” value under setting [3] stood at 34%.

`O=C(c1cccnc1)c1cc(-c2cccnc2)c(N2CCOCC2)s1` [Example 98, (5-Morpholin-4-yl-4-pyridin-3-yl-thiophen-2-yl)-pyridin-3-yl-methanone]: under setting [1], the inhibition in vivo at 50 mg/kg stood at 42%.

With `CC(=O)Nc1ccc(C(=O)c2cc(-c3cccnc3)c(N3CCOCC3)s2)cc1` [Example 97, N-[4-(5-Morpholin-4-yl-4-pyridin-3-yl-thiophen-2-carbonyl)-phenyl]-acetamide], under setting [1], the inhibition in vivo at 50 mg/kg was 46.8%.

Regarding `CS(=O)(=O)c1ccc(C(=O)c2sc(Nc3ccccc3)nc2N)cc1` [Example 325, (4-Amino-2-phenylamino-thiazol-5-yl)-(4-methanesulfonyl-phenyl)-methanone], the inhibition in vivo at 50 mg/kg under setting [1] came to 12%.

In the case of `CSc1ccc(C(=O)c2cc(-c3ccc(S(C)(=O)=O)cc3)c(N3CCOCC3)s2)cc1` [Example 59, [4-(4-Methanesulfonyl-phenyl)-5-morpholin-4-yl-thiophene-2-yl]-(4-methylsulfanyl-phenyl)-methanone], the inhibition in vivo at 50 mg/kg under setting [1] turned out to be 45.8%.

Regarding “4-{5-[5-Methyl5-(2,2,2-trifluoro-ethoxy)-pyridin-2-yl]-3-pyridin-4-yl-thiphen-2-yl}-morpholine [Example 101]”, the “% Protection P” value under setting [2] is given as 47%.

On to `COc1ccc(Nc2nc(N)c(C(=O)c3ccncc3)s2)cc1` [Example 350, ([4-Amino-2-(4-methoxy-phenylamino)-thiazol-5-yl]-pyridin-4-yl-methanone)], for which the inhibition in vivo at 50 mg/kg under setting [1] came to 25.8%.

Turning to `COc1ccc(C(=O)c2sc(N3CCN(C(=O)c4ccco4)CC3)nc2-c2ccco2)cc1` [Example 372, {2-[4-(Furan-2-carbonyl)-piperazin-1-yl]-4-furan-2-yl-thiazol-5-yl}-(4-methoxy-phenyl)-methanone], the inhibition in vivo at 50 mg/kg under setting [1] is 52.2%.

For `Cc1nc(NC(=O)c2ccccc2)sc1C(=O)c1sc(NC(=O)c2ccccc2)nc1C` [Example 121, Bis-[2-(2-Benzoyl-amino)-4-methyl-thiazole-5-yl]-methanone], under setting [3], the “% Protection P” value worked out at 62%.

For the molecule `COc1ccc(Nc2nc(NC(=O)Nc3ccc(F)cc3)c(C(=O)c3ccc(S(C)(=O)=O)cc3)s2)cc1` [Example 364, 1-(4-Fluoro-phenyl)-3-[5-(4-methanesulfonyl-benzoyl)-2-(4-methoxy-phenylamino)-thiazol-4-yl]-urea], under setting [2], the “% Protection P” value was determined as 66.78%.

On to `O=C(c1ccncc1)c1cc(-c2ccc(Cl)cc2)c(N2CCOCC2)s1` [Example 87, [4-(4-Chloro-phenyl)-5-morpholin-4-yl-thiophen-2-yl]-pyridin-4-yl-methanone], for which the inhibition in vivo at 50 mg/kg under setting [1] is 35%.

For `O=C(c1sc(Nc2ccc(Cl)cc2)nc1-c1ccccc1)c1sc(Nc2ccc(Cl)cc2)nc1-c1ccccc1` [Example 127, Bis-[2-(4-Chloro-phenylamino)-4-phenyl-thiazole-5-yl]-methanone], the inhibition in vivo at 50 mg/kg under setting [1] amounted to 43.5%.
